Measured values published in ChEMBL document CHEMBL2346656, “Anti-hepatitis B virus lignans from the root of Streblus asper” (Bioorg Med Chem Lett, 2013).

Experiments:
Hepatitis B virus [1] = assay: Antiviral activity against Hepatitis B virus infected in human HepG2.2.15 cells assessed as inhibition of HBV DNA replication after 72 hrs by PCR analysis; format: functional, organism-based; details: HepG2 2.2.15, 72 h
Hepatitis B virus [2] = assay: Antiviral activity against Hepatitis B virus infected in human HepG2.2.15 cells assessed as inhibition of HBeAg secretion after 12 days by ELISA; format: functional, organism-based; details: HepG2 2.2.15, 288 h
[3] = Cytotoxicity against human HepG2(2.2.15) cells after 12 days by MTT assay; format: cell-based
Hepatitis B virus [4] = assay: Antiviral activity against Hepatitis B virus infected in human HepG2.2.15 cells assessed as inhibition of HBsAg secretion after 12 days by ELISA; format: functional, organism-based; details: HepG2 2.2.15, 288 h
[5] = Selectivity index, ratio of CC50 for human HepG2(2.2.15) cells to IC50 for Hepatitis B virus infected human HepG2.2.15 cells by DNA replication assay; format: functional
[6] = Selectivity index, ratio of CC50 for human HepG2(2.2.15) cells to IC50 for Hepatitis B virus infected in human HepG2.2.15 cells assessed as HBeAg secretion inhibition assay; format: functional
[7] = Selectivity index, ratio of CC50 for human HepG2(2.2.15) cells to IC50 for Hepatitis B virus infected in human HepG2.2.15 cells by HBsAg secretion inhibition assay; format: functional

| Structure (SMILES) | IC50 (Hepatitis B virus [1]) | IC50 (Hepatitis B virus [2]) | IC50 (Hepatitis B virus [4]) | CC50 at 288 h [3] | Ratio CC50/IC50 [5] | Ratio CC50/IC50 [6] | Ratio CC50/IC50 [7] |
| --- | --- | --- | --- | --- | --- | --- | --- |
| C=CCc1ccc(O[C@@H]2O[C@H](CO)[C@@H](O)[C@H](O)[C@H]2O)c(-c2cc(C[C@@H](O)CO)ccc2O)c1 | > 1000 µM | > 1000 µM | > 1000 µM | 190 µM |  |  |  |
| COc1cc(C2c3cc(O)c(OC)cc3C[C@@H](CO)[C@@H]2CO[C@@H]2OC[C@@H](O)[C@H](O)[C@H]2O)ccc1O (stereo partly specified) | 17.7 µM | 26.7 µM | 6.98 µM | 210 µM | 11.9 | 7.87 | 30.15 |
| COc1cc([C@H]2Oc3c(OC)cc(CCCO)cc3[C@@H]2CO)ccc1O [DIHYDRODEHYDRODICONIFERY ALCOHOL] | > 1000 µM | > 1000 µM | > 1000 µM | 180 µM |  |  |  |
| COc1cc([C@H]2Oc3c(OC)cc(/C=C/C(=O)O)cc3[C@@H]2CO)ccc1O [GLYCOSMISIC ACID] | > 1000 µM | > 1000 µM | > 1000 µM | 200 µM |  |  |  |
| COc1cc([C@H]2c3cc(O)c(OC)cc3C[C@@H](CO)[C@@H]2CO)ccc1O [ISOLARICIRESINOL] | 12.7 µM | 14.7 µM | 3.67 µM | 129 µM | 10.18 | 8.82 | 35.28 |
| C=CCc1ccc(Oc2ccc(C=O)cc2O)cc1 [ISOMAGNALDEHYDE] | > 1000 µM | 86.7 µM | 162 µM | 186 µM |  | 2.14 | 1.14 |
| C=CCc1ccc(Oc2ccc(/C=C/C=O)cc2)c(O)c1 [ISOSTREBLUSLIGNANALDEHYDE] | 61.2 µM | 10.5 µM | 12.2 µM | 200 µM | 3.27 | 19.11 | 16.46 |
| Nc1ccn([C@@H]2CS[C@H](CO)O2)c(=O)n1 [LAMIVUDINE] | 99.5 µM | 176 µM | 141 µM | 391 µM | 3.93 | 2.22 | 2.77 |
| C=CCc1ccc(O)c(-c2cc(C=O)ccc2O)c1 [MAGNALDEHYDE] | > 1000 µM | 41.4 µM | 109 µM | 200 µM |  | 4.83 | 1.84 |
| C=CCc1ccc(Oc2cc(CC=C)cc(O)c2O)cc1 [OBOVATOL] |  |  |  | 180 µM |  |  |  |

The next lines start with results.

| IC50 (Hepatitis B virus [1]) | IC50 (Hepatitis B virus [2]) | IC50 (Hepatitis B virus [4]) | Structure (SMILES) | CC50 at 288 h [3] | Ratio CC50/IC50 [5] | Ratio CC50/IC50 [6] | Ratio CC50/IC50 [7] |
| --- | --- | --- | --- | --- | --- | --- | --- |
| 9.02 µM | 3.24 µM | 1.58 µM | C=CCc1ccc2c(c1)-c1cc([C@@H](O)[C@H](C)O)ccc1Oc1ccc(CC=C)cc1-c1cc([C@@H](O)[C@H](C)O)ccc1O2 [(7'R,8'S,7'R,8'S)-ERYTHRO-STREBLUSLIGNANOL G] | 118 µM | 13.12 | 36.52 | 74.9 |
| 12.9 µM | 8.83 µM | 10.3 µM | C=CCc1ccc(Oc2cc(CC=C)ccc2O)cc1 [ISOMAGNOLOL] | 196 µM | 15.13 | 22.14 | 18.91 |
| > 1000 µM | > 1000 µM | > 1000 µM | C=CCc1ccc(O)c(-c2cc(C[C@@H](O)CO)ccc2O)c1 [MAGNOLIGNAN A] | 176 µM |  |  |  |
| 8.67 µM | 3.76 µM | 2.03 µM | C=CCc1ccc(O)c(-c2cc(CC=C)ccc2O)c1 [MAGNOLOL] | 63.7 µM | 7.34 | 16.94 | 31.37 |
| > 1000 µM | 30.2 µM | 162 µM | C=CCc1ccc(O)c(-c2cc(O)ccc2O)c1 [RANDAIOL] | 201 µM |  | 6.63 | 1.23 |
| 11.6 µM | 43.2 µM | 56.9 µM | C=CCc1ccc(O)c(-c2cc([C@H]3O[C@H](c4ccc(O)c(-c5cc(CC=C)ccc5O)c4)[C@@H](C)O[C@@H]3C)ccc2O)c1 [STREBLUSLIGNANOL F] | 137 µM | 11.87 | 3.17 | 2.41 |
| > 1000 µM | 147 µM | > 1000 µM | C=CCc1ccc(O)c(-c2cc([C@@H](O)[C@@H](C)O)ccc2O)c1 [STREBLUSLIGNANOL] | 200 µM |  | 1.36 |  |
